This note sets out measurements from ChEMBL document CHEMBL3232726, “Discovery of 2-oxo-1,2-dihydrobenzo[cd]indole-6-sulfonamide derivatives as new RORγ inhibitors using virtual screening, synthesis and biological evaluation” (Eur J Med Chem, 2014).

The first experiment addresses T1, Nuclear receptor ROR-gamma (Homo sapiens, UniProt P51449).
T1 sequence (P51449 whole entry): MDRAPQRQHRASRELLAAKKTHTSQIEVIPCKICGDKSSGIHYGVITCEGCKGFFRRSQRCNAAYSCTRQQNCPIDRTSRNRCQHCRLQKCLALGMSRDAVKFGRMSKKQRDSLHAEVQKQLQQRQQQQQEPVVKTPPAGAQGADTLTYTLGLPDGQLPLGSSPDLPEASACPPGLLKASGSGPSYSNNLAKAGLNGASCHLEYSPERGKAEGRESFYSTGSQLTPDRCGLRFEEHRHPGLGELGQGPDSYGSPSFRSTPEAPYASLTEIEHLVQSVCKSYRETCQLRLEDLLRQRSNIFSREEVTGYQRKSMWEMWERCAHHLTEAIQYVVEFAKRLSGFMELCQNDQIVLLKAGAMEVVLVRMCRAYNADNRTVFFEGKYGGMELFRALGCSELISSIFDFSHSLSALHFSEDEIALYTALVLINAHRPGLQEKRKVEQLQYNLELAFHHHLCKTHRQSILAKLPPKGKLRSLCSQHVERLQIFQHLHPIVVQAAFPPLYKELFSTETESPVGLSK
Nature of the experiment: Antagonist activity at Gal4-fused RORgamma (unknown origin) expressed in 293T cells after 24 hrs by luciferase reporter gene assay. The format is cell-based. In general terms: A reporter such as luciferase makes a cellular process visible.
Turning to `CCN1C(=O)c2cccc3c(S(=O)(=O)N(C(=O)c4ccncc4)c4ccc(OC)cc4)ccc1c23`, the IC50 (commonly the concentration at which inhibition is half-maximal) was 0.09 µM. Turning to `CCN1C(=O)c2cccc3c(S(=O)(=O)NCC4CCN(C(C)=O)CC4)ccc1c23`, the IC50 is 6.03 µM.

In another experiment the target is T1, Nuclear receptor ROR-gamma. Nature of the experiment: Antagonist activity at human His6-tagged RORgamma ligand binding domain (262 to 507 aa) assessed as inhibition of SRC1-4 co-activator peptide recruitment by luminescence-based AlphaScreen assay. A general note: In Alpha technology, singlet oxygen from a donor bead excites a nearby acceptor bead.
Turning to `CCN1C(=O)c2cccc3c(S(=O)(=O)N(C(=O)c4ccncc4)c4ccc(OC)cc4)ccc1c23`, the IC50 turned out to be 6.47 µM.

For `C=CCn1c(COc2ccc(Cl)cc2)nnc1SCC(=O)N/N=C/c1cccc(O)c1`, the IC50 is 56.6 µM.

Take `CCN1C(=O)c2cccc3c(S(=O)(=O)Nc4ccccc4C(=O)c4ccccc4)ccc1c23`: the IC50 was 156 µM. On the same count and under the same terms, as for `CCN1C(=O)c2cccc3c(S(=O)(=O)NCc4ccc(OC)cc4)ccc1c23`, the figure is 174 µM; as for `NC(=O)c1ccc(NC(=O)c2cccc(COc3ccc(Cl)cc3)c2)cc1`, 168 µM; as for `C=CCn1c(CCCN2C(=O)c3cccc4cccc(c34)C2=O)nnc1SCC(=O)Nc1ccc(S(N)(=O)=O)cc1`, 142 µM.

The target of a further experiment is T1, Nuclear receptor ROR-gamma. Nature of the experiment: Antagonist activity at full-length RORgamma (unknown origin) expressed in 293T cells after 24 hrs by luciferase reporter gene assay. The format is cell-based.
The molecule `CCN1C(=O)c2cccc3c(S(=O)(=O)N(C(=O)c4ccncc4)c4ccc(OC)cc4)ccc1c23` displayed an IC50 of 0.08 µM. `CCN1C(=O)c2cccc3c(S(=O)(=O)NCC4CCN(C(C)=O)CC4)ccc1c23` had an IC50 of 0.59 µM.
